Assay results taken from patent publication US6846492B2, “Use of phenylethylamine derivatives for the antimicrobial treatment of surfaces” (Ciba Specialty Chemicals Corporation, priority 2000, dated 2005).

What follows are compounds tested on Staphylococcus hominis DMS 20328 (= SH) (assay: MIC determination in microtiter plates, Staphylococcus hominis). Conditions: Tables 2a/2b, 48 hours at 37° C., ≦20% growth, optical density 620 nm, tested at 120, 60, 30, 15, 7.5 and 3.5 ppm, some approximate.
Assay type: cell-based
Protocol: (§1) Determination of the Minimum Inhibitory Concentration (MIC Value) in Microtiter Plates
(§2) Casein/soybean flour peptone bouillon for the preparation of pre-cultures of the test bacteria and yeast.
(§3) Mycological slant agar for the pre-culture of moulds
(§4) The test substances are pre-dissolved in dimethyl sulfoxide (DMSO) and tested in a dilution series of 1:2.
(§5) Bacteria and yeast are cultured overnight in CASO bouillon, the mould is cultured overnight on mycological slant agar, and washed off with 10 ml of 0.85% sodium chloride solution (+0.1% TritonX-100).
(§6) All the test organisms are adjusted to an organism count of 1−5×10^6 CFU/ml using 0.85% sodium chloride solution.
(§7) The test substances are pre-pipetted into microtiter plates in an amount of 8 μl per well.
(§8) Pre-diluted organism suspensions are diluted 1:100 in CASO bouillon (bacteria and yeast) or Sabouraud 2% glucose bouillon (mould) and are added in an amount of 192 μl per well to the test substances.
(§9) The test batches are incubated for 48 hours at 37° C. (bacteria and yeast) or for 5 days at 28° C. (mould).
(§10) After incubation, the growth is evaluated by reference to the turbidity of the test batches (optical density) at 620 nm in a microplate reader.
(§11) One microtiter plate is used for each test organism and substance concentration. All the substances are tested in duplicate.

| SMILES | MIC [ppm] SH |
| --- | --- |
| CC(C)CCOc1cc(CCN)cc(OCCC(C)C)c1OCCC(C)C [Compound 84] | 3.75 ppm |
| N#Cc1ccccc1COc1ccc(CCN)cc1OCc1ccccc1C#N [Compound 11] | 120 ppm |
| NCCc1ccc(OCc2ccc3ccccc3c2)c(OCc2ccc3ccccc3c2)c1 [Compound 20] | 3.75 ppm |
| N#Cc1cccc(COc2ccc(CCN)cc2OCc2cccc(C#N)c2)c1 [Compound 12] | 60 ppm |
| CC(C)(C)c1ccc(COc2ccc(CCN)cc2OCc2ccc(C(C)(C)C)cc2)cc1 [Compound 18] | 1.9 ppm |
| COC(=O)COc1cc(CCN)cc(OCC(=O)OC)c1OCC(=O)OC [Compound 72] | >120 ppm |
| CCCOC(=O)COc1ccc(CCN)cc1OCC(=O)OCCC [Compound 23] | >120 ppm |
| CCC(CC)Oc1cc(CCN)cc(OC(CC)CC)c1OC(CC)CC [Compound 86] | 7.5 ppm |
| CCCCOc1cc(CCN)cc(OCCCC)c1OCCCC [Compound 81] | 15 ppm |
| CCC(C)Oc1cc(CCN)cc(OC(C)CC)c1OC(C)CC (centres unmarked) [Compound 83] | >120 ppm |
| CCCOc1ccc(CCN)cc1OCCC [Compound 29] | >120 ppm |
| C=CCCOc1ccc(CCN)cc1OCCC=C [Compound 43] | >120 ppm |
| Cc1ccc(COc2ccc(CCN)cc2OCc2ccc(C)cc2)cc1 [Compound 7] | 3.75 ppm |

These compounds were tested on Escherichia coli NCTC 8196 (= EC) (assay: MIC determination in microtiter plates, Escherichia coli). Conditions: Tables 2a/2b, 48 hours at 37° C., ≦20% growth, optical density 620 nm, some approximate values.
Assay type: cell-based
Protocol: as §1, §2, §3, §4, §5, §6, §7, §8, §9, §10, §11

| SMILES | MIC [ppm] EC |
| --- | --- |
| CC(C)CCOc1cc(CCN)cc(OCCC(C)C)c1OCCC(C)C [Compound 84] | 7.5 ppm |
| N#Cc1ccccc1COc1ccc(CCN)cc1OCc1ccccc1C#N [Compound 11] | >120 ppm |
| NCCc1ccc(OCc2ccc3ccccc3c2)c(OCc2ccc3ccccc3c2)c1 [Compound 20] | >120 ppm |
| N#Cc1cccc(COc2ccc(CCN)cc2OCc2cccc(C#N)c2)c1 [Compound 12] | 120 ppm |
| CC(C)(C)c1ccc(COc2ccc(CCN)cc2OCc2ccc(C(C)(C)C)cc2)cc1 [Compound 18] | >60 ppm |
| COC(=O)COc1cc(CCN)cc(OCC(=O)OC)c1OCC(=O)OC [Compound 72] | >120 ppm |
| CCCOC(=O)COc1ccc(CCN)cc1OCC(=O)OCCC [Compound 23] | >120 ppm |
| CCC(CC)Oc1cc(CCN)cc(OC(CC)CC)c1OC(CC)CC [Compound 86] | 15 ppm |
| CCCCOc1cc(CCN)cc(OCCCC)c1OCCCC [Compound 81] | 7,5 ppm |
| CCC(C)Oc1cc(CCN)cc(OC(C)CC)c1OC(C)CC (centres unmarked) [Compound 83] | 30 ppm |
| CCCOc1ccc(CCN)cc1OCCC [Compound 29] | >120 ppm |
| C=CCCOc1ccc(CCN)cc1OCCC=C [Compound 43] | >120 ppm |
| Cc1ccc(COc2ccc(CCN)cc2OCc2ccc(C)cc2)cc1 [Compound 7] | 7.5 ppm |

Each compound was assayed on Pseudomonas aeruginosa CIP A-22 (= PA) (assay: MIC determination in microtiter plates, Pseudomonas aeruginosa). Conditions: Tables 2a/2b, 48 hours at 37° C., ≦20% growth, optical density 620 nm, some approximate values.
Assay type: cell-based
Protocol: as §1, §2, §3, §4, §5, §6, §7, §8, §9, §10, §11

| SMILES | MIC [ppm] PA |
| --- | --- |
| CC(C)CCOc1cc(CCN)cc(OCCC(C)C)c1OCCC(C)C [Compound 84] | >120 ppm |
| N#Cc1ccccc1COc1ccc(CCN)cc1OCc1ccccc1C#N [Compound 11] | >120 ppm |
| NCCc1ccc(OCc2ccc3ccccc3c2)c(OCc2ccc3ccccc3c2)c1 [Compound 20] | >120 ppm |
| N#Cc1cccc(COc2ccc(CCN)cc2OCc2cccc(C#N)c2)c1 [Compound 12] | >120 ppm |
| CC(C)(C)c1ccc(COc2ccc(CCN)cc2OCc2ccc(C(C)(C)C)cc2)cc1 [Compound 18] | >120 ppm |
| COC(=O)COc1cc(CCN)cc(OCC(=O)OC)c1OCC(=O)OC [Compound 72] | >120 ppm |
| CCCOC(=O)COc1ccc(CCN)cc1OCC(=O)OCCC [Compound 23] | >120 ppm |
| CCC(CC)Oc1cc(CCN)cc(OC(CC)CC)c1OC(CC)CC [Compound 86] | >120 ppm |
| CCCCOc1cc(CCN)cc(OCCCC)c1OCCCC [Compound 81] | 120 ppm |
| CCC(C)Oc1cc(CCN)cc(OC(C)CC)c1OC(C)CC (centres unmarked) [Compound 83] | >120 ppm |
| CCCOc1ccc(CCN)cc1OCCC [Compound 29] | >120 ppm |
| C=CCCOc1ccc(CCN)cc1OCCC=C [Compound 43] | >120 ppm |
| Cc1ccc(COc2ccc(CCN)cc2OCc2ccc(C)cc2)cc1 [Compound 7] | 120 ppm |

Each compound was assayed on Candida albicans ATCC 10231 (= CA) (assay: MIC determination in microtiter plates, Candida albicans). Conditions: Tables 2a/2b, 48 hours at 37° C., ≦20% growth, optical density 620 nm, some approximate values.
Assay type: cell-based
Protocol: as §1, §2, §3, §4, §5, §6, §7, §8, §9, §10, §11

| SMILES | MIC [ppm] CA |
| --- | --- |
| CC(C)CCOc1cc(CCN)cc(OCCC(C)C)c1OCCC(C)C [Compound 84] | 15 ppm |
| N#Cc1ccccc1COc1ccc(CCN)cc1OCc1ccccc1C#N [Compound 11] | >120 ppm |
| NCCc1ccc(OCc2ccc3ccccc3c2)c(OCc2ccc3ccccc3c2)c1 [Compound 20] | >120 ppm |
| N#Cc1cccc(COc2ccc(CCN)cc2OCc2cccc(C#N)c2)c1 [Compound 12] | >120 ppm |
| CC(C)(C)c1ccc(COc2ccc(CCN)cc2OCc2ccc(C(C)(C)C)cc2)cc1 [Compound 18] | 60 ppm |
| COC(=O)COc1cc(CCN)cc(OCC(=O)OC)c1OCC(=O)OC [Compound 72] | >120 ppm |
| CCCOC(=O)COc1ccc(CCN)cc1OCC(=O)OCCC [Compound 23] | >120 ppm |
| CCC(CC)Oc1cc(CCN)cc(OC(CC)CC)c1OC(CC)CC [Compound 86] | 60 ppm |
| CCCCOc1cc(CCN)cc(OCCCC)c1OCCCC [Compound 81] | 30 ppm |
| CCC(C)Oc1cc(CCN)cc(OC(C)CC)c1OC(C)CC (centres unmarked) [Compound 83] | 120 ppm |
| CCCOc1ccc(CCN)cc1OCCC [Compound 29] | >120 ppm |
| C=CCCOc1ccc(CCN)cc1OCCC=C [Compound 43] | >120 ppm |
| Cc1ccc(COc2ccc(CCN)cc2OCc2ccc(C)cc2)cc1 [Compound 7] | 3.75 ppm |

Each compound was assayed on Aspergillus niger ATCC 6275 (= AN) (assay: MIC determination in microtiter plates, Aspergillus niger). Conditions: Tables 2a/2b, 5 days at 28° C., ≦20% growth, optical density 620 nm, some approximate values.
Assay type: cell-based
Protocol: as §1, §2, §3, §4, §5, §6, §7, §8, §9, §10, §11

| SMILES | MIC [ppm] AN |
| --- | --- |
| CC(C)CCOc1cc(CCN)cc(OCCC(C)C)c1OCCC(C)C [Compound 84] | 15 ppm |
| N#Cc1ccccc1COc1ccc(CCN)cc1OCc1ccccc1C#N [Compound 11] | >120 ppm |
| NCCc1ccc(OCc2ccc3ccccc3c2)c(OCc2ccc3ccccc3c2)c1 [Compound 20] | >120 ppm |
| N#Cc1cccc(COc2ccc(CCN)cc2OCc2cccc(C#N)c2)c1 [Compound 12] | 30 ppm |
| CC(C)(C)c1ccc(COc2ccc(CCN)cc2OCc2ccc(C(C)(C)C)cc2)cc1 [Compound 18] | >120 ppm |
| COC(=O)COc1cc(CCN)cc(OCC(=O)OC)c1OCC(=O)OC [Compound 72] | >120 ppm |
| CCCOC(=O)COc1ccc(CCN)cc1OCC(=O)OCCC [Compound 23] | 15 ppm |
| CCC(CC)Oc1cc(CCN)cc(OC(CC)CC)c1OC(CC)CC [Compound 86] | 30 ppm |
| CCCCOc1cc(CCN)cc(OCCCC)c1OCCCC [Compound 81] | >120 ppm |
| CCC(C)Oc1cc(CCN)cc(OC(C)CC)c1OC(C)CC (centres unmarked) [Compound 83] | >120 ppm |
| CCCOc1ccc(CCN)cc1OCCC [Compound 29] | >120 ppm |
| C=CCCOc1ccc(CCN)cc1OCCC=C [Compound 43] | >120 ppm |
| Cc1ccc(COc2ccc(CCN)cc2OCc2ccc(C)cc2)cc1 [Compound 7] | >120 ppm |
